Assay results taken from paper PMC6264190, “Interaction of α-Melanocortin and Its Pentapeptide Antisense LVKAT: Effects on Hepatoprotection in Male CBA Mice” (Molecules, 2011).
“Also recorded” adds a separate entry of the source.

Tests used:
[1] = system: acetaminophen induced hepatotoxicity; details: mouse model of acetaminophen induced hepatotoxicity; ref [15],[16]; cited from earlier work
Excerpt: Alpha-melanotropin (α-MSH) is an ancient, evolutionally conserved, tridecapeptide derived by the proteolytic cleavage from the pro-opiomelanocortin (POMC) hormone. It is currently the most widely studied melanocortin peptide in the context of tissue inflammation and cytoprotection. Recently, Turčić et al. […] Turčić et al. […] Sections of the liver were fixed in 10% phosphate buffered formalin, embedded in paraffin, sectioned at 4 µm, and stained with hematoxilin and eosin. Sections were examined by using light microscope, and grading of the liver lesions was done on 0-5 point scale according to Silva et al. (0 = no lesions, 1 = minimal, 2 = mild, 3 = moderate, 4 = marked and 5 = severe lesions). Alanine aminotransferase (ALT) and aspartate aminotransferase (AST) activity was determined from plasma by standard laboratory techniques. Plasma was sep ...

male CBA mice = experiment: Spontaneous deaths in the acetaminophen hepatotoxicity model; format: in vivo; details: starting number eight per group; acetaminophen 150 mg/kg i.g.; α-MSH 2.5 mg/kg, LVKAT 0.8 mg/kg or equimolar mixture i.p.; none died in control; difference not statistically significant
Experimental: (§1) Experimental animals were male CBA mice, 12-16 weeks old, weighing 20-25 g and bred at the Ruđer Bošković Institute. Experiments were performed according to the ILAR Guide for the Care and Use of Laboratory Animals, Council Directive 86/609/EEC, and Croatian Animal Protection Act (Official Gazette 135/06). The animals were kept in a room with dark-light cycle (12h/12h) and constant temperature (22 ± 1 °C). Hepatotoxicity was induced according to the slightly modified procedure of Guarner et al.. To induce hepatic drug-metabolizing enzymes mice were given 0.3 g/L phenobarbitone-sodium (Kemika, Zagreb, Croatia) for 7 days. […] (Krka, Novo Mesto, Slovenia) 150 mg/kg was given intragastrically (i.g.), via a gastric tube, in a volume of 0.5 mL. […] Control animals were treated with saline (0.9% NaCl). The size of experimental groups was 6-8. Mice that spontaneously died were excluded from histopathological or biochemical analysis. […] However, the difference was not statistically significant.

[2] = system: acetaminophen-induced hepatotoxicity in male CBA mice; experiment: Plasma alanine aminotransferase (ALT) activity 24 h after acetaminophen administration; format: in vivo; details: mean ± SD; 24 h after acetaminophen 150 mg/kg i.g.; α-MSH 2.5 mg/kg, LVKAT 0.8 mg/kg or their equimolar mixture i.p. 1 hour before; group size 6-8; untreated controls 10087 ± 9595; α-MSH significantly lower, LVKAT and mixture p > 0.05; normal animals 37.7 ± 7.7
Experimental: as §1
(§2) Sections of the liver were fixed in 10% phosphate buffered formalin, embedded in paraffin, sectioned at 4 µm, and stained with hematoxilin and eosin. […] Alanine aminotransferase (ALT) and aspartate aminotransferase (AST) activity was determined from plasma by standard laboratory techniques. […]

[3] = system: acetaminophen-induced hepatotoxicity in male CBA mice; experiment: Plasma aspartate aminotransferase (AST) activity 24 h after acetaminophen administration; format: in vivo; details: mean ± SD; 24 h after acetaminophen 150 mg/kg i.g.; α-MSH 2.5 mg/kg, LVKAT 0.8 mg/kg or their equimolar mixture i.p. 1 hour before; group size 6-8; untreated controls 6091 ± 4275; α-MSH significantly lower, LVKAT and mixture p > 0.05; normal animals 109.3 ± 25.3
Experimental: as §1, §2

[4] = system: acetaminophen (APAP)-induced liver lesions in male CBA mice; experiment: Histopathological grading of acetaminophen (APAP)-induced liver lesions; format: in vivo; details: mean ± SD; acetaminophen 150 mg/kg i.g.; α-MSH 2.5 mg/kg, LVKAT 0.8 mg/kg or their equimolar mixture i.p. 1 hour before; scored at 24 hours; 0 = no lesions, 5 = severe; group size 6-8; untreated controls 4.8 ± 0.46; α-MSH p < 0.05, LVKAT and mixture p > 0.05 vs controls
Experimental: as §1, §2

LVKAT = experiment: Tryptophan fluorescence spectrofluorometric titration of sense peptides with antisense peptide LVKAT; format: binding
Experimental: Tryptophan fluorescence was used to detect binding of antisense pentapeptide LVKAT to the central binding region of α-MSH molecule. […] One was attributed to α-MSH and the other to its complex with antisense pentapeptide LVKAT. […] Consequently, the proposed model is given by Equation (1) and Equation (2), where Kd is the dissociation constant of the complex: […]
SENSE - LVKAT ⇄ SENSE + LVKAT(1)
Figure 2 A typical titration of 2.5 µM solution of α-MSH (sense) with LVKAT (antisense) at 25 °C, pH = 7.4, 10 mM phosphate buffer. The concentration of LVKAT was varied from 50 to 750 μM. Fluorescence units (f.u.) are given as a ratio of signals obtained from sample and reference PMTs. Inset: Fitting curve at 360 nm according to the Equation (1) and Equation (2).
Figure 3 A typical titration of 25 µM solution of EHFRW (sense) with LVKAT (antisense) at 25 °C, pH = 7.4, 10 mM phosphate buffer. The concentration of LVKAT was varied from 50 to 500 µM. Fluorescence units (f.u.) are given as a ratio of signals obtained from sample and reference PMTs. Inset: Fitting curve at 360 nm according to the Equation (1) and Equation (2).
Fluorescence spectra were measured at 25 °C by OLIS RSM 1000F spectrofluorimeter (Olis, Bogart, GA, USA) equipped with thermostatted cell holder. […] Data obtained from the titrations were analyzed with the Specfit software package.

[5] = system: hepatoprotective effects of α-MSH on the APAP induced hepatic lesions; experiment: Modulation of α-MSH hepatoprotection by antisense peptide in vivo (overall); parameters: species or system male CBA mice
Experimental: as §1, §2

antibody to L-α-MSH = details: ref [15],[16]; cited from earlier work

Substance	hepatoprotective effect (in words) [1]	animals that died spontaneously (male CBA mice)	blood (plasma) alanine aminotransferase (ALT) [2] [U/L]	blood (plasma) aspartate aminotransferase (AST) [3] [U/L]	liver lesion score (scale 0-5) [4]	stoichiometry of complex with LVKAT (LVKAT; SVD analysis of fluorescence titration spectra, Specfit, no higher order complexes) [complex formation]	effect of LVKAT alone (hepatoprotection, in words) ([5]; LVKAT 0.8 mg/kg i.p. 1 hour before acetaminophen 150 mg/kg i.g., p > 0.05 vs untreated controls)	effect on hepatoprotection by α-MSH (in words) ([5]; LVKAT given with α-MSH (equimolar) i.p. 1 hour before acetaminophen 150 mg/kg i.g., histopathology, ALT and AST)	binding to antibody to L-α-MSH (antibody to L-α-MSH)	binding to LVKAT in fluorescence titration (in words) (LVKAT; same experimental conditions as for α-MSH (25 °C, pH = 7.4, 10 mM phosphate buffer))
Ac-SYSMEHFRWGKPV-NH2 [α-MSH, tridecapeptide derived by the proteolytic cleavage from the pro-opiomelanocortin (POMC) hormone]	strong and dose dependent hepatoprotective effects; also recorded: potent hepatoprotective effects	none of the animals died	585.8 ± 1424	539.5 ± 459.6	2 ± 0.75	1 to 1				
LVKAT [pentapeptide antisense to central region of α-MSH that serves as the pharmacophore for melanocortin receptors]					5 ± 0		not hepatoprotective per se	abolishes hepatoprotective effects of α-MSH		
Ac-SYSMEHFRWGKPV-NH2 [D-α-MSH, D-enantiomer of α-MSH]									does not bind antibody to L-α-MSH	very weak (if any) binding
